Laboratory results as given in patent US5225438A, “Aryl derivatives” (Imperial Chemical Industries PLC, priority 1990, dated 1993).

How the values were obtained:
5-LO [1] = target: T1, 5-LO (Homo sapiens, UniProt P09917); experiment: Test a) in vitro human blood challenged with calcium ionophore A23187, LTB4 radioimmunoassay; assay type: cell-based; settings: heparinised human blood
T1 construct: incubating a test compound with heparinised human blood, prior to challenge with the calcium ionophore A23187; endogenous in cells; host or cells: blood cells in heparinised human whole blood
T1 sequence (P09917 1-674): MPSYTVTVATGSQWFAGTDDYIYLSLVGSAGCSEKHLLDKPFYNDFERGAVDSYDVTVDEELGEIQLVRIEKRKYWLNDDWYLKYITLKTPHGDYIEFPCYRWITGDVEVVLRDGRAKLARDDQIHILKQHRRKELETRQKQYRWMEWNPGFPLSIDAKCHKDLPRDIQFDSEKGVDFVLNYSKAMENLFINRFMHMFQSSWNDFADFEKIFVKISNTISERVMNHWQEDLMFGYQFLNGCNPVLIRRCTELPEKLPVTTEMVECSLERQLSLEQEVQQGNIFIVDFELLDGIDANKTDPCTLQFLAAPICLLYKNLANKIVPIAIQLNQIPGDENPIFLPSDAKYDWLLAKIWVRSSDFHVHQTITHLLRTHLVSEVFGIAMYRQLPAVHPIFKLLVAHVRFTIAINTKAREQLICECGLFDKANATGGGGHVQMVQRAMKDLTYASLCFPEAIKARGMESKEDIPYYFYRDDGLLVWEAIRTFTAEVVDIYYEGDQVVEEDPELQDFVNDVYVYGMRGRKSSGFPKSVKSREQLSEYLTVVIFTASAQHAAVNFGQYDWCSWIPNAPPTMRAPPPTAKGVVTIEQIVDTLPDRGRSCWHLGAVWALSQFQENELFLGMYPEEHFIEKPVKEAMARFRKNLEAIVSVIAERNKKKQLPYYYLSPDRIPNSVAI
Experimental: a) An in vitro assay system involving incubating a test compound with heparinised human blood, prior to challenge with the calcium ionophore A23187 and then indirectly measuring the inhibitory effects on 5-LO by assaying the amount of LTB4 using specific radioimmunoassays described by Carey and Forder (Prostaglandins, Leukotrienes Med., 1986, 22, 57; Prostaglandins, 1984, 28, 666; Brit. J. Pharmacol., 1985, 84, 34P) which involves the use of a protein-LTB4 conjugate produced using the procedure of Young et alia (Prostaglandins, 1983, 26(4), 605-613). The effects of a test compound on the enzyme cyclooxygenase (which is involved in the alternative metabolic pathway for arachidonic acid and gives rise to prostaglandins, thromboxanes and related metabolites) may be measured at the same time using the specific radioimmunoassay for thromboxane B2 (TxB2) described by Carey and Forder (see above). This test provides an indication of the effects of a test compound against 5-LO and also cyclooxygenase in the presence of blood cells and proteins. It permits the selectivity of the inhibitory effect on 5-LO or cyclooxygenase to be assessed.

5-LO [2] = target: T2, 5-LO (Rattus norvegicus, UniProt P12527); experiment: Test c) in vivo zymosan-induced liberation of LTB4 within an air pouch of male rats; settings: 3 h; test c), oral
T2 construct: liberation of LTB4 induced by zymosan within an air pouch generated within the subcutaneous tissue of the back of male rats; from tissue; host or cells: live male rats, zymosan-inflamed subcutaneous air pouch (endogenous enzyme)
T2 sequence (P12527 1-673): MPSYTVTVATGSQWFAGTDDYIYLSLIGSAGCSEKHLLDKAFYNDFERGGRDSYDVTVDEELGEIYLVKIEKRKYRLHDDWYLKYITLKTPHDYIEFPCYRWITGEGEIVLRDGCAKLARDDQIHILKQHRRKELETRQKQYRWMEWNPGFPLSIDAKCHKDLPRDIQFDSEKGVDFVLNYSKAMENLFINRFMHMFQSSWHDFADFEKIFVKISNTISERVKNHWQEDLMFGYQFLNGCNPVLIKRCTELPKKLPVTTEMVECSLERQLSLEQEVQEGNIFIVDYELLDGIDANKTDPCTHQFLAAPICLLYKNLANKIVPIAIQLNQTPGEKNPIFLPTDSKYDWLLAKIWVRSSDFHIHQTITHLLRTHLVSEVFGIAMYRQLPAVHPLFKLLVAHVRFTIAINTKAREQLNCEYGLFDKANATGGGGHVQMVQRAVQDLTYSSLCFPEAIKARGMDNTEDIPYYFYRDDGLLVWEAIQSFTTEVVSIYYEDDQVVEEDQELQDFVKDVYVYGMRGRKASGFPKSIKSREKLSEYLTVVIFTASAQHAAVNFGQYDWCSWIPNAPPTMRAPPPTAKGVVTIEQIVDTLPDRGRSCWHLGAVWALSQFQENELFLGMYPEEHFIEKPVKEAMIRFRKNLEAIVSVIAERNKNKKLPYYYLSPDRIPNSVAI
Experimental: c) An in vivo system involving measuring the effects of a test compound administered orally against the liberation of LTB4 induced by zymosan within an air pouch generated within the subcutaneous tissue of the back of male rats. The rats are anaesthetised and air pouches are formed by the injection of sterile air (20 ml). A further injection of air (10 ml) is similarly given after 3 days. At 6 days after the initial air injection the test compound is administered (usually orally as the suspension produced when a solution of the test compound in dimethylsulphoxide is added to hydroxypropylmethylcellulose), followed by the intrapouch injection of zymosan (1 ml of a 1% suspension in physiological saline). After 3 hours the rats are killed, the air pouches are lavaged with physiological saline, and the specific radioimmunoassay described above is used to assay LTB4 in the washings. This test provides an indication of inhibitory effects against 5-LO in an inflammatory milieu.

Compound | IC50 (5-LO [1]) [nM] | ED50 (5-LO [2]) [mg/kg]
COC1(c2cc(F)cc(Sc3ccc(C(F)(F)c4ccc(F)cc4)cc3)c2)CCOCC1 [4-[5-fluoro-3-(4-(4-fluoro-alpha,alpha-difluorobenzyl)phenylthio)phenyl]-4-methoxytetrahydropyran] | 140 | 1
COC1(c2cccc(Sc3ccc(Cc4ccc(F)cc4)cc3)c2)CCOCC1 [4-[3-(4-(4-fluorobenzyl)phenylthio)phenyl]-4-methoxytetrahydropyran] | 40 | 2
